Key:
[1] = tested on: autoantibody production; test: 2-Chlorodeoxyadenosine in autohemolytic anemia patients; type: in vivo, human
Source text: Thus, the present invention provides a method for decreasing the number of circulating blood monocytes.

[2] = tested on: multiple sclerosis; test: Treatment of chronic multiple sclerosis patients with CdA; type: in vivo, human
Experimental: A study of four patients with chronic multiple sclerosis was undertaken. Each patient was first examined for normal hepatic, renal, and bone marrow functioning to establish baseline values. Each of the patients was then treated with CdA dissolved in sterile preservative-free isotonic saline. The CdA was administered intravenously at a dosage of 0.1 mg/kg each day for a total of seven days. Each patient received six courses of intravenous therapy, once monthly for a total of six months. Patients were examined on a daily basis while hospitalized. During that time, daily blood counts and twice weekly blood chemistries were performed on each patient. CdA levels were also measured in blood and spinal fluid.
The neurologic function of each of these patients was measured using the expanded Krutzke disability status scale (EDSS), and the neurologic rating scale (NRS).

[3] = tested on: human fibroblast cell line GM01380; test: In vitro cytotoxicity toward human fibroblast cell line (MTT reduction assay); type: cell-based; conditions: 20 nM CdA, five days
Experimental: FIG. 2 is a graph illustrating the dose-response cytotoxicity of 2-chlorodeoxyadenosine (CdA) towards normal human monocytes (open squares), the human fibroblast cell line, GM01380, which is from normal fetal lung (open diamonds) and normal human lymphocytes (closed diamonds), when cultured in vitro. Cells were cultured in vitro as described in Example 2 for five days in the presence of varying concentrations of CdA from 0 to 125 nanomolar (nM), after which time viable cells were determined. The percentage of viable cells remaining after treatment (ordinate) is plotted against the concentration of CdA utilized (abscissa), on a linear scale. The effect of the presence of deoxycytidine (dCyd, 100 μM) on CdA toxicity toward monocytes (closed squares) is also illustrated. […]
Toxicity towards the monocytes and fibroblasts was determined by a modification of the MTT reduction assay described in Mosmann (1983) J. Immunol. […]
Viable cell numbers were determined using a Dynatech microplate spectrophotometer, measuring absorbance at a wavelength of 570 nanometers (nm), using a reference wavelength of 630 nm. The assay could detect as few as 2000 unactivated monocytes, and the absorbance of MTT formazan at 570 nm was linear with respect to the number of monocytes over a range of about 2.5-20×10^3 cells.

[4] = tested on: delayed-type hypersensitivity (DTH) response; test: Delayed-type hypersensitivity to ovalbumin in guinea pigs, oral and intraperitoneal treatment; type: in vivo, guinea pig; conditions: dexamethasone 5 mg/kg, CdA or CAFdA 1 mg/kg, 24 and 48 hours, p<0.01
Experimental: (§1) Delayed-type hypersensitivity (DTH) is a cell-mediated immune response that typically takes longer than 12 hours to develop. In the guinea pig, a DTH reaction to an antigen can be established by first immunizing the animal with the antigen in an adjuvant such as Freund's complete adjuvant. Subsequent intradermal injection of the antigen causes no change for at least 10 hours, after which there is a gradual increase in erythema and swelling in response to antigen injection. This response peaks about at about 24 hours after challenge, then gradually subsides.
Histologically, the inflammatory response is characterized by intense inundation of the site with mononuclear cells, of which about half are lymphocytes and the other half monocytes. DTH is therefore an indicator of a monocyte-mediated immune reaction.
In one study, guinea pigs were sensitized to ovalbumin in adjuvant. The animals were then treated either orally or intraperitoneally with saline (control), dexamethasone (5 mg/kg), CdA (1 mg/kg) or CAFdA (1 mg/kg). The animals were then injected with ovalbumin intradermally to elicit the DTH response. The mean area of the swelling size was measured for each animal (nine or ten animals were treated for each protocol).

[5] = tested on: delayed-type hypersensitivity (DTH) reaction; test: Delayed-type hypersensitivity to ovalbumin in guinea pigs, different dosages of CdA; type: in vivo, guinea pig; conditions: for swelling compared to control saline treated animals: 24 and 48 hours post-challenge, p<0.01
Experimental: as §1
In another study, the effects of different dosages of CdA on the DTH reaction were examined. Guinea pigs sensitized to ovalbumin were treated with saline (control), dexamethasone (5 mg/kg), and CdA at 1 mg/kg or 0.1 mg/kg. Three days after treatment, the animals were challenged with ovalbumin intradermally. The areas of the skin lesions were measured at 6, 24, and 48 hours after challenge.

[6] = tested on: CEM, wild type; test: Direct comparative cytotoxicity assay (Table II), CEM wild type; type: cell-based, human; conditions: Homo sapiens, 120 h, read-out: ID50: concentration that produced 50 percent reduction in all numbers after five days
Source text: The two compounds, CdA and CAFdA, were also compared for in vitro activity against another group of human cell lines in a direct comparative assay.
^1 Concentration that produced 50 percent reduction in all numbers
^2 CEM cells are T lymphoblasts; DHL9 cells are lymphoblasts.

Nc1nc(Cl)nc2c1ncn2[C@H]1C[C@H](O)[C@@H](CO)O1 [CdA, 2-chloro-9,1'-beta-D-2'-deoxyribosyladenine]
autoantibody production [1]: significant decrease in autoantibody production | hemolysis [1]: reduction in hemolysis | cerebrospinal fluid IgG oligoclonal bonds ([2]; all cases): complete disappearance | platelet counts ([2]; all four patients): remained within the normal range | macrocytosis ([2]; all patients, lasting six to eight months after cessation of treatment): modest macrocytosis | monocyte level ([2]; another patient, after two treatments): substantially absent | neurologic function, EDSS and NRS scales ([2]; during treatment with CdA): evidence of improvement in all four patients | toxic side effects ([2]; four patients, 0.1 mg/kg each day i.v. for seven days, six monthly courses): no evidence of any significant toxic side effects | cerebrospinal fluid lymphocyte counts ([2]; human, in vivo): marked drop | total CFS IgG ([2]; human, in vivo): no significant change | monocyte drop ([2]; one patient, after the first treatment): 40% | monocyte level ([2]; same patient, after each of the remaining five treatments): substantially absent | toxicity on the growth of fibroblast cells [3]: no appreciable toxicity | swelling after ovalbumin challenge compared to saline control ([4]; intraperitoneal): significant inhibition of swelling | swelling after ovalbumin challenge compared to saline control ([4]; oral): ineffective | numerical values of the areas of swelling relative to dexamethasone ([5]; 0.1 and 1.0 mg/kg CdA, substantially the same): slightly less than the value obtained with dexamethasone | swelling compared to control saline treated animals ([5]; CdA 0.1 mg/kg): effective at inhibiting swelling | swelling compared to control saline treated animals ([5]; CdA 1 mg/kg): effective at inhibiting swelling | IC50 [6]: 21 nM
